Reference: US11292787B2, “Five-membered-fused-six-membered aza-aromatic ring compound, preparation method thereof, pharmaceutical composition and application thereof” (XIAMEN UNIVERSITY, priority 2017, dated 2022)

Molecular target: T1, K-Ras protein (Homo sapiens, UniProt P01116, G12V)
T1 construct: in SW620 cells, compound I-a-1 can effectively enhance the degradation of endogenous K-RAS-G12V proteins; endogenous in cells; host or cells: SW-620
Assay: K-Ras protein degradation rate by Western blot in SW-620 cells
Format: cell-based
Details: 10 μM, SW-620 cells, 24 h, Western blot, relative to DMSO control; read-out: Degradation rate of compounds at 10 μM on Ras protein (%)
Procedure: Inhibitory activity of compounds on K-RAS was evaluated by the degradation rate of protein level of administration group relative to control group (Cell Rep 2014, 7, 871-882).
The specific method was as follows:
1. Cell plating: SW-620 cells in logarithmic growth phase were inoculated into a 24-well plate at 2×10^4/well, and cultured in a 37° C., 5% CO2 incubator.
2. Administering drug to cells: after 24 h of culture, various drug stocks […]; the original solution in the 24-well plate was discarded, to which was added the obtained drug solution, with the DMSO group as the blank control; after the drug solution was added, the 24-well plate was transferred to the 37° C. CO2 incubator to continue the culture.
3. Detection of K-Ras protein level: after 24 h of administration and culture, the liquid in the well was discarded, the cells were routinely collected, and rinsed twice with 1×PBS, a cell lysate was added to extract the total cellular protein, and the protein concentration was determined by BCA method. 30 μg of the protein sample was taken for SDS-polyacrylamide gel electrophoretic transmembrane, the membrane was blocked sequentially, incubated with K-Ras antibody (1:1000) and internal reference antibody β-actin (1:2000) respectively overnight at 4° C., rinsed with TBST for 5 min×3 times, then incubated with the addition of the corresponding horseradish peroxidase-labeled secondary antibody (1:5000) for 1-2 h, and rinsed with TBST for 5 min×3 times. Finally, chemiluminescence image was acquired using Image Lab software.
4. Calculation of single-point K-Ras protein degradation rate: quantitative and calibration analysis of K-Ras and β-actin were conducted using Image-Lab software, and then the intracellular K-Ras degradation rate was calculated according to the following formula: single-point K-Ras protein degradation rate (%)=(control group−administration group)/control group×100%. The drug with degradation rate ≥20% was selected for soft agar experiment.

T1 sequence (P01116 1-188 isoform P01116-2 G12V): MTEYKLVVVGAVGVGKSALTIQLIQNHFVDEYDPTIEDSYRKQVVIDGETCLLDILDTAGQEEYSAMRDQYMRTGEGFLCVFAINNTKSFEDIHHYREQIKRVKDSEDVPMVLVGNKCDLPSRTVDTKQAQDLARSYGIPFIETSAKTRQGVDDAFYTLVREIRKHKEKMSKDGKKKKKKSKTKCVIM

Structure (SMILES)	percent K-Ras protein degradation (single point) at 10 µM
O=C(NCc1c(F)cccc1F)c1c[nH]c(-c2n[nH]c3ncccc23)c1 [III-f-3]	6%
O=S(=O)(Cc1c(F)cccc1Cl)c1c[nH]c(-c2n[nH]c3ncccc23)c1 [III-h-4]	41%
O=C(Nc1ccccc1)c1ccc(-c2n[nH]c3ccccc23)s1 [I-f-2]	25%
O=C(NC1CCCCC1)c1ccc(-c2c[nH]c3ccccc23)cc1 [IV-e-3]	40%
O=C(NCc1ccc(C(F)(F)F)cc1)c1c[nH]c(-c2n[nH]c3ncccc23)c1 [III-f-34]	60%
N#Cc1cccc(CNC(=O)c2c[nH]c(-c3n[nH]c4ncccc34)c2)c1 [III-f-32]	60%
O=C(Nc1ccccc1)c1c[nH]c(-c2n[nH]c3ccccc23)c1 [I-b-2]	56%
O=C(Nc1ccccc1)c1ccc(-c2n[nH]c3ccccc23)cc1 [I-e-2]	12%
O=C(NCc1c(F)cccc1Cl)c1csc(-c2cnc3cnccn23)c1 [VII-a-1]	5%
O=C(Nc1ccccc1)c1ccc(-c2cnc3ccccn23)cc1 [IX-e-2]	50%
O=C(NCc1cccc(OC(F)(F)F)c1)c1c[nH]c(-c2n[nH]c3ncccc23)c1 [III-f-38]	50%
O=C(NCc1ccccc1F)c1c[nH]c(-c2n[nH]c3ncccc23)c1 [III-f-45]	50%
O=C(NCc1c(F)cccc1Cl)c1c[nH]c(-c2n[nH]c3ccccc23)c1 [I-b-1]	50%
O=C(NCc1c(F)cccc1Cl)c1coc(-c2c[nH]c3ncccc23)c1 [II-b-1]	52%
O=S(=O)(Cc1ccc(Cl)cc1)c1c[nH]c(-c2n[nH]c3ncccc23)c1 [III-h-5]	16%
O=C(Nc1ccccc1)c1ccc(-c2cnc3cnccn23)cc1 [VII-e-2]	20%
O=C(NCc1c(F)cccc1Cl)c1ccc(-c2nnc3ccccn23)cc1 [X-e-1]	10%
O=C(NCc1c(F)cccc1Cl)c1cccc(-c2cnc3cccnn23)c1 [VIII-d-1]	2%
O=C(NC1CCCCC1)c1c[nH]c(-c2n[nH]c3ncccc23)c1 [III-f-27]	14%
COc1ccc(CNC(=O)c2c[nH]c(-c3n[nH]c4ncccc34)c2)cc1 [III-f-55]	25%

Structure (SMILES)	percent K-Ras protein degradation (single point) at 10 µM
O=C(NCc1c(F)cccc1Cl)c1csc(-c2c[nH]c3ccccc23)c1 [IV-a-1]	10%
O=C(NCc1ccccn1)c1c[nH]c(-c2n[nH]c3ncccc23)c1 [III-f-37]	35%
O=C(NCc1c(F)cccc1Cl)c1c[nH]c(-c2n[nH]c3ncccc23)c1 [III-f-1]	60%
O=C(NCc1cc(F)cc(C(F)(F)F)c1)c1c[nH]c(-c2n[nH]c3ncccc23)c1 [III-f-58]	75%
O=C(NCc1c(F)cccc1Cl)c1coc(-c2c[nH]c3ccccc23)c1 [IV-c-1]	30%
O=C(NCc1ccc(OC(F)(F)F)cc1)c1c[nH]c(-c2n[nH]c3ncccc23)c1 [III-f-40]	30%
O=C(NCc1ccccc1OC(F)(F)F)c1c[nH]c(-c2n[nH]c3ncccc23)c1 [III-f-39]	60%
O=C(NCc1c(F)cccc1Cl)c1cccc(-c2n[nH]c3ccccc23)c1 [I-d-1]	2%
O=C(NCc1ccccc1O)c1c[nH]c(-c2n[nH]c3ncccc23)c1 [III-f-35]	50%
O=C(NCc1cc(C(F)(F)F)ccc1F)c1csc(-c2n[nH]c3ncccc23)c1 [III-a-4]	60%
O=C(NCc1cccc([N+](=O)[O-])c1)c1c[nH]c(-c2n[nH]c3ncccc23)c1 [III-f-48]	60%
O=C(Nc1ccccc1)c1c[nH]c(-c2cnc3cnccn23)c1 [VII-b-2]	20%
O=C(NCc1c(F)cccc1Cl)c1ccc(-c2n[nH]c3ncccc23)s1 [III-e-1]	40%
O=C(NCc1c(F)cccc1Cl)c1ccc(-c2n[nH]c3ccccc23)s1 [I-f-1]	20%
O=C(Nc1c(F)cccc1Cl)c1ccc(-c2n[nH]c3ncccc23)cc1 [III-d-3]	27%
CC(C)(C)n1nc(-c2cc(C(=O)Nc3ccccc3)cs2)c2c(N)ncnc21 [VI-a-2]	30%
O=C(NCc1cccc(C(F)(F)F)c1)c1csc(-c2n[nH]c3ccccc23)c1 [I-a-8]	20%
O=C(NC1CCCCC1)c1ccc(-c2cnc3cccnn23)cc1 [VIII-e-3]	20%
O=C(NCc1ccccc1Br)c1c[nH]c(-c2n[nH]c3ncccc23)c1 [III-f-42]	70%
Cc1ccccc1CNC(=O)c1c[nH]c(-c2n[nH]c3ncccc23)c1 [III-f-51]	70%

Structure (SMILES)	percent K-Ras protein degradation (single point) at 10 µM
O=C(NCc1c(F)cccc1Cl)c1csc(-c2cnc3cccnn23)c1 [VIII-a-1]	40%
O=C(NCc1c(F)cccc1Cl)c1coc(-c2cnc3ccccn23)c1 [IX-c-1]	40%
O=C(NCc1cc(C(F)(F)F)cc(C(F)(F)F)c1)c1c[nH]c(-c2n[nH]c3ncccc23)c1 [III-f-59]	60%
O=C(NCc1cc(C(F)(F)F)ccc1F)c1c[nH]c(-c2n[nH]c3ncccc23)c1 [III-f-62]	70%
N#Cc1ccc(CNC(=O)c2c[nH]c(-c3n[nH]c4ncccc34)c2)cc1 [III-f-31]	45%
CC(C)(C)n1nc(-c2cccc(C(=O)Nc3ccccc3)c2)c2c(N)ncnc21 [VI-d-2]	30%
O=C(NCc1c(F)cccc1Cl)c1coc(-c2n[nH]c3ncccc23)c1 [III-b-1]	35%
O=C(NCc1c(F)cccc1Cl)c1coc(-c2nnc3ccccn23)c1 [X-c-1]	10%
O=C(NCc1cccc(Cl)c1)c1c[nH]c(-c2n[nH]c3ncccc23)c1 [III-f-46]	60%
O=C(Nc1ccccc1)c1ccc(-c2c[nH]c3ccccc23)cc1 [IV-e-2]	20%
CC(C)(C)n1nc(-c2cccc(C(=O)NCc3c(F)cccc3Cl)c2)c2c(N)ncnc21 [VI-d-1]	30%
O=C(Nc1ccccc1)c1coc(-c2c[nH]c3ccccc23)c1 [IV-c-2]	50%
O=C(NCc1c(F)cccc1Cl)c1ccc(-c2c[nH]c3ccccc23)s1 [IV-f-1]	10%
O=C(NCc1c(F)cccc1Cl)c1c[nH]c(-c2cnc3cccnn23)c1 [VIII-b-1]	20%
O=C(NCc1cccc(C(F)(F)F)c1)c1csc(-c2cnc3cnccn23)c1 [VII-a-2]	60%
O=C(Nc1ccccc1)c1ccc(-c2n[nH]c3ncccc23)cc1 [III-d-2]	18%
O=C(NCc1c(F)cccc1Cl)c1ccc(-c2nnc3ccccn23)s1 [X-f-1]	20%
O=C(Nc1ccccc1)c1c[nH]c(-c2cnc3cccnn23)c1 [VIII-b-2]	10%
O=C(Nc1ccccc1)c1ccc(-c2n[nH]c3ncccc23)s1 [III-e-2]	40%
